Measurements reported in ChEMBL document CHEMBL6120970, “Discovery and Functional Characterization of a Potent, Selective, and Metabolically Stable PROTAC of the Protein Kinases DYRK1A and DYRK1B” (J Med Chem, 2024).
Converted amounts (≈) assume the structure as drawn. The source made the active and inactive calls. No cut-off for these calls is given here.

Experiments:
[1] = Half life in mouse at 10 mg/kg, ip administered as single dose; type: ADME, organism-based; details: in vivo
[2] = target: T1, Protein cereblon/Dual specificity tyrosine-phosphorylation-regulated kinase 1A (Homo sapiens, UniProt Q13627+Q96SW2); experiment: PROTAC activity at CRBN/DYRK1A in HEK293 cells assessed as induction of degradation of DYRK1A at 100 nM pretreated with CB-5083 followed by compound addition and incubated for 8 hrs; type: cell-based
Target sequence in this assay (Q96SW2 whole entry, looked up, other chains not shown): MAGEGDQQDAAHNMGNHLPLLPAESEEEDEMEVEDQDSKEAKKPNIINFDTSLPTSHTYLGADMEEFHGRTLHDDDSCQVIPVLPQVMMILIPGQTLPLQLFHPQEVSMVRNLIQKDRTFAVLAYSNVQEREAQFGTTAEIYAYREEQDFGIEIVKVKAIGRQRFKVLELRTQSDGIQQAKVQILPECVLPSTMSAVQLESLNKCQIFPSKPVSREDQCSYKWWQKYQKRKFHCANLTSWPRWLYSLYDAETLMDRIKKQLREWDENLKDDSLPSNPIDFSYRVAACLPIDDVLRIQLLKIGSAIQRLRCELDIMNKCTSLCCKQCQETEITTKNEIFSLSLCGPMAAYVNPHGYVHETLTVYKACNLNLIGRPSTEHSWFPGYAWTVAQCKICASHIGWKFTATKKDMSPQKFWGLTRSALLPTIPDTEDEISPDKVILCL

[3] = Permeability of the compound by PAMPA method; type: ADME; details: read-out: permeability
[4] = Clearance in mouse at 1 mg/kg, iv administered as single dose; type: ADME, organism-based; details: in vivo
[5] = Metabolic stability in rat liver microsomes assessed as intrinsic clearance; type: ADME, Microsome; details: read-out: CLH
[6] = target: T1, Protein cereblon/Dual specificity tyrosine-phosphorylation-regulated kinase 1A; experiment: PROTAC activity at CRBN/DYRK1A in HEK293 cells expressing GFP-SF3B1 assessed as inhibition of SF3B1 phosphorylation at 10 nM measured for 48 hrs by Western blot analysis; type: cell-based
Target sequence in this assay (Q96SW2 whole entry, looked up, other chains not shown): as above

[7] = Tmax in mouse at 10 mg/kg, ip administered as single dose; type: ADME, organism-based; details: in vivo
[8] = target: T1, Protein cereblon/Dual specificity tyrosine-phosphorylation-regulated kinase 1A; experiment: PROTAC activity at CRBN/DYRK1A in HEK293 cells assessed as induction of degradation of DYRK1A at 1 to 10000 nM incubated for 24 hrs in presence of 4-(3-(2-fluoro-4-(4-methylpiperazin-1-yl)phenyl)-2-methyl-3H-imidazo[4,5-b]pyridin-5-yl)pyridin-2-amine; type: cell-based; details: dose 1-10000 nM
Target sequence in this assay (Q96SW2 whole entry, looked up, other chains not shown): as above

[9] = test system: HEK293; experiment: Effect on DCAF7 expression in HEK293 cells at 1 to 10000 nM; type: functional, cell-based; details: Homo sapiens, dose 1-10000 nM
[10] = target: T1, Protein cereblon/Dual specificity tyrosine-phosphorylation-regulated kinase 1A; experiment: PROTAC activity at CRBN/DYRK1A in Flp-In-T-REx-293 cells overexpressing GFP-DYRK1A assessed as maximal reduction of GFP fluorescence at 1 uM measured upto 6 hrs by fluorescence based phase contrast microscopy analysis relative to control; type: cell-based
Target sequence in this assay (Q96SW2 whole entry, looked up, other chains not shown): as above

[11] = target: T2, Protein cereblon/Dual specificity tyrosine-phosphorylation-regulated kinase 1B (Homo sapiens) (UniProt Q9Y463+Q96SW2); experiment: PROTAC activity at CRBN/HibiT-tagged DYRK1B in Flp-In-T-REx-293 cells assessed as induction of degradation of DYRK1B by measuring maximum efficacy at 1 uM measured after 24 hrs by NanoBiT luciferase assay relative to control; type: cell-based
[12] = target: T1, Protein cereblon/Dual specificity tyrosine-phosphorylation-regulated kinase 1A; experiment: PROTAC activity at CRBN/DYRK1A in HEK293 cells assessed as induction of degradation of DYRK1A at 100 nM incubated for 24 hrs; type: cell-based
Target sequence in this assay (Q96SW2 whole entry, looked up, other chains not shown): as above

[13] = Metabolic stability in mouse liver microsomes assessed as intrinsic clearance; type: ADME, Microsome; details: read-out: CLH
[14] = MRT in mouse at 1 mg/kg, iv administered as single dose; type: ADME, organism-based; details: in vivo
[15] = target: T1, Protein cereblon/Dual specificity tyrosine-phosphorylation-regulated kinase 1A; experiment: PROTAC activity at CRBN/DYRK1A in Flp-In-T-REx-293 cells overexpressing GFP-DYRK1A assessed as half life at 1 uM measured upto 6 hrs by fluorescence based phase contrast microscopy analysis; type: cell-based
Target sequence in this assay (Q96SW2 whole entry, looked up, other chains not shown): as above

[16] = AUC infinity in mouse at 10 mg/kg, ip administered as single dose; type: ADME, organism-based; details: in vivo
[17] = Solubility of the compound in PBS buffer; type: physicochemical
[18] = target: T2, Protein cereblon/Dual specificity tyrosine-phosphorylation-regulated kinase 1B (Homo sapiens); experiment: PROTAC activity at CRBN/DYRK1B in HEK293 cells assessed as induction of degradation of DYRK1B at 100 nM incubated for 24 hrs; type: cell-based
[19] = target: T2, Protein cereblon/Dual specificity tyrosine-phosphorylation-regulated kinase 1B (Homo sapiens); experiment: PROTAC activity at CRBN/DYRK1B in HEK293 cells assessed as induction of degradation of DYRK1B at 100 nM pretreated with lenalidomide followed by compound addition and incubated for 8 hrs; type: cell-based
[20] = target: T1, Protein cereblon/Dual specificity tyrosine-phosphorylation-regulated kinase 1A; experiment: PROTAC activity at CRBN/DYRK1A in human OVCAR-3 cells assessed as induction of degradation of DYRK1A at 100 nM incubated for 8 hrs; type: cell-based
[21] = target: T1, Protein cereblon/Dual specificity tyrosine-phosphorylation-regulated kinase 1A; experiment: PROTAC activity at CRBN/HibiT-tagged DYRK1A in Flp-In-T-REx-293 cells assessed as induction of degradation of DYRK1A by measuring maximum efficacy at 1 uM measured after 24 hrs by NanoBiT luciferase assay relative to control; type: cell-based
[22] = Solubility of the compound in FaSSIF buffer; type: physicochemical
[23] = target: T1, Protein cereblon/Dual specificity tyrosine-phosphorylation-regulated kinase 1A; experiment: PROTAC activity at CRBN/DYRK1A in HEK293 cells assessed as induction of degradation of DYRK1A at 1 to 10000 nM incubated for 24 hrs in presence of leucettine-41; type: cell-based; details: dose 1-10000 nM
[24] = target: T2, Protein cereblon/Dual specificity tyrosine-phosphorylation-regulated kinase 1B (Homo sapiens); experiment: PROTAC activity at CRBN/DYRK1B in Flp-In-T-REx-293 cells overexpressing GFP-DYRK1B assessed as maximal reduction in GFP fluorescence at 1 uM measured upto 6 hrs by fluorescence based phase contrast microscopy analysis relative to control; type: cell-based
[25] = target: T1, Protein cereblon/Dual specificity tyrosine-phosphorylation-regulated kinase 1A; experiment: PROTAC activity at CRBN/DYRK1A in human HeLa cells assessed as induction of degradation of DYRK1A at 100 nM incubated for 8 hrs; type: cell-based
[26] = target: T1, Protein cereblon/Dual specificity tyrosine-phosphorylation-regulated kinase 1A; experiment: PROTAC activity at CRBN/DYRK1A in HEK293 cells assessed as induction of degradation of DYRK1A incubated for 24 hrs; type: cell-based
Target sequence in this assay (Q96SW2 whole entry, other chains not shown): as the sequence (Q96SW2 whole entry, looked up, other chains not shown) above

[27] = Metabolic stability in human liver microsomes assessed as half life; type: ADME, Microsome
[28] = Half life in mouse plasma; type: ADME, cell-free
[29] = Half life in mouse at 10 mg/kg, po administered as single dose; type: ADME, organism-based; details: in vivo
[30] = AUC infinity in mouse at 10 mg/kg, po administered as single dose; type: ADME, organism-based; details: in vivo
[31] = target: T1, Protein cereblon/Dual specificity tyrosine-phosphorylation-regulated kinase 1A; experiment: PROTAC activity at CRBN/DYRK1A in human A549 cells assessed as induction of degradation of DYRK1A at 100 nM incubated for 24 hrs; type: cell-based
[32] = AUC last in mouse at 10 mg/kg, ip administered as single dose; type: ADME, organism-based; details: in vivo
[33] = target: T2, Protein cereblon/Dual specificity tyrosine-phosphorylation-regulated kinase 1B (Homo sapiens); experiment: PROTAC activity at CRBN/DYRK1B in HEK293 cells assessed as induction of degradation of DYRK1B at 100 nM pretreated with MLN4924 followed by compound addition and incubated for 8 hrs; type: cell-based
[34] = Plasma protein binding (unknown origin); type: ADME, cell-free; details: read-out: PPB
[35] = Metabolic stability in rat liver microsomes assessed as half life; type: ADME, Microsome
[36] = Cmax in mouse at 10 mg/kg, ip administered as single dose; type: ADME, organism-based; details: in vivo
[37] = target: T1, Protein cereblon/Dual specificity tyrosine-phosphorylation-regulated kinase 1A; experiment: PROTAC activity at CRBN/DYRK1A in HEK293 cells assessed as induction of degradation of DYRK1A by measuring maximum efficacy at 1 to 10000 nM incubated for 24 hrs relative to control; type: cell-based; details: dose 1-10000 nM
[38] = target: T1, Protein cereblon/Dual specificity tyrosine-phosphorylation-regulated kinase 1A; experiment: PROTAC activity at CRBN/DYRK1A in human A549 cells assessed as induction of degradation of DYRK1A at 100 nM incubated for 8 hrs relative to control; type: cell-based
[39] = target: T1, Protein cereblon/Dual specificity tyrosine-phosphorylation-regulated kinase 1A; experiment: PROTAC activity at CRBN/DYRK1A in HEK293 cells assessed as induction of degradation of DYRK1A at 1 to 10000 nM incubated for 24 hrs in presence of CaNDY; type: cell-based; details: dose 1-10000 nM
[40] = Cmax in mouse at 10 mg/kg, po administered as single dose; type: ADME, organism-based; details: in vivo
[41] = Tmax in mouse at 10 mg/kg, po administered as single dose; type: ADME, organism-based; details: in vivo

T2 sequence (Q96SW2 whole entry, looked up): as the sequence (Q96SW2 whole entry, looked up, other chains not shown) above
T2 sequence (Q9Y463 whole entry, looked up): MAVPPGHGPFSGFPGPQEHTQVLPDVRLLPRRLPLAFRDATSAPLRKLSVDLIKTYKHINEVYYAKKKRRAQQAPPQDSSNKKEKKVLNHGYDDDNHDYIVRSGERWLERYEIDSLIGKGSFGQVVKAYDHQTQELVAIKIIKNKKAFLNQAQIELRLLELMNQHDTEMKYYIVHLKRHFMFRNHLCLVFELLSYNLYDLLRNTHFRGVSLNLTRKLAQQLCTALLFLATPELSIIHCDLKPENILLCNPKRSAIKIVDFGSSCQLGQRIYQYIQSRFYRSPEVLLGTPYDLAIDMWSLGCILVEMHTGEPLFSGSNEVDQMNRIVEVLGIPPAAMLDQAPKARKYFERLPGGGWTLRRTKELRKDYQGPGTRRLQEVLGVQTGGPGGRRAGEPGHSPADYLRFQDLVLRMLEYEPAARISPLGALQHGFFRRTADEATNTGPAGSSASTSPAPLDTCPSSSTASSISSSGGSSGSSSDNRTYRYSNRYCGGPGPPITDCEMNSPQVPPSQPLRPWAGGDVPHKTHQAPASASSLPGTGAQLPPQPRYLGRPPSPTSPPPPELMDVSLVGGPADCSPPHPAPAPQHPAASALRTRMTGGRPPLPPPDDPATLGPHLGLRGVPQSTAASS

SMILES: Cc1nc2ccc(-c3ccnc(N)c3)nc2n1-c1ccc(N2CCN(CC#Cc3ccc(N4CCC(C(=O)N5CCC(n6cc(CNc7cccc8c7C(=O)N(C7CCC(=O)NC7=O)C8=O)cn6)CC5)CC4)nc3)CC2)c(F)c1 (stereo unspecified)
- half-life [1]: 4.75 h
- Activity [2]: inactive
- Papp [3]: < 0.005 ×10⁻⁶ cm/s
- clearance [4]: 7.1 mL/min/kg
- CLint scaled [5]: 14 mL/min/kg
- Activity [6]: Active
- Tmax [7]: 0.25 h
- Activity [8]: inactive
- Activity [9]: inactive
- Emax [10]: 98%
- Emax [11]: 66%
- Activity [12]: Active
- CLint scaled [13]: 3.1 mL/min/kg
- MRT [14]: 1.4 h
- T1/2 [15]: 0.95 h
- AUC(0-inf) [16]: 27100 ng·h/mL
- solubility [17]: < 0.009 µM
- Activity [18]: Active
- Activity [19]: inactive
- Activity [20]: inactive
- Emax [21]: 84%
- solubility [22]: 0.16 µM (≈ 0.17 µg/mL)
- Activity [23]: inactive
- Emax [24]: 86%
- Activity [25]: inactive
- DC50 [26]: 12.3 nM
- half-life [27]: 2.28 h
- half-life [28]: 6.97 h
- half-life [29]: 2.11 h
- AUC(0-inf) [30]: 64 ng·h/mL
- Activity [31]: Active
- AUC(0-t) [32]: 26300 ng·h/mL
- Activity [33]: inactive
- fraction unbound [34]: < 0.0062
- half-life [35]: 1.64 h
- Cmax [36]: 8130 ng/mL
- Emax [37]: 90%
- Activity [38]: 100%
- Activity [39]: inactive
- Cmax [40]: 18.5 ng/mL
- Tmax [41]: 0.5 h
